This note sets out measurements from patent publication US8575091B1, “Amylin analogues and pharmaceutical compositions thereof” (Novo Nordisk A/S, priority 2012, dated 2013).

Numbered stars: 1 amine (or outer) side, 2 acyl side, 3 side chain; on linkers, the order of the positions; unused ones are H or OH. Bridge positions count the residues as written; N and C are the ends. Peptide text beside a SMILES is read from it. * marks the point of attachment. C20 diacid = O=C(O)CCCCCCCCCCCCCCCCCCC(=O)*; γGlu = O=C(O)[C@H](CCC(=O)[*:2])N[*:1]

What is called EC50 is the concentration needed to bring the measured effect to its halfway point. One may read the IC50 as the concentration at which inhibition is half-maximal.

Assay [1] concerns the target T1, human amylin receptor (amylin 3(a) receptor: human calcitonin receptor + RAMP-3) (Homo sapiens, UniProt O60896+P30988).
T1 construct: expressed in transfected cells
T1 sequence (P30988 25-474): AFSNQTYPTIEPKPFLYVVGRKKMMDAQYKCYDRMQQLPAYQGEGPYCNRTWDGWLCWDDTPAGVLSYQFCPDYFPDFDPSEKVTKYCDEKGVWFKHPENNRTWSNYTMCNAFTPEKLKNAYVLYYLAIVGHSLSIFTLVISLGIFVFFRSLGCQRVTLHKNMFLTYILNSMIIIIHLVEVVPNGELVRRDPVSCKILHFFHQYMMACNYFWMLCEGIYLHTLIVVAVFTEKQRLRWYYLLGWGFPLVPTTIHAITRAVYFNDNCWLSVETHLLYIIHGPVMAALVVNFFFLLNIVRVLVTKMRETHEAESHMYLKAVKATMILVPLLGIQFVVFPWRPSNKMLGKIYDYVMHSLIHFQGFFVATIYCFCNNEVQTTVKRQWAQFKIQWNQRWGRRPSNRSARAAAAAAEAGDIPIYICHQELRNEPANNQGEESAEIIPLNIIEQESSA
T1 sequence (O60896 24-148 partner): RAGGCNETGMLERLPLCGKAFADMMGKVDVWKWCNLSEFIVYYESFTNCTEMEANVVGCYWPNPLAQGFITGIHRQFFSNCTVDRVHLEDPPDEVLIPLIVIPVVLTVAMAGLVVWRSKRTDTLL
In words: Assay (II)a functional assay, human amylin receptor (CRE luciferase, BHK cells). It counts as cell-based. As to conditions: for EC50: functional assay, human amylin receptor, read-out: hAmylin-R funct. EC50.

Assay [2] addresses T2, human calcitonin receptor (Homo sapiens, UniProt P30988).
T2 construct: expressed in transfected cells
T2 sequence (P30988 25-474): T1 sequence (P30988 25-474)
In words: Assay (II)a functional assay, human calcitonin receptor (CRE luciferase, BHK cells).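 Also: luminescence from a CRE-driven luciferase reporter, read by single photon counting after cells were exposed to test samples for 3 h at 37 °C under 5% CO2.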 Conditions: read-out: hCTR funct. EC50. In kind it is cell-based.

Assay [3] addresses T2, human calcitonin receptor. In words: Assay (VII) binding to the human calcitonin receptor (SPA, 125I-Calcitonin).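 Also: cell membranes coupled to SPA beads, competitive displacement read by scintillation counting, IC50 derived from a one-site competition fit as a measure of receptor affinity.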 Conditions: read-out: hCTR bind IC50.
Protocol: Membranes were prepared in the following way; the cells were rinsed with PBS and incubated with Versene for approximately 5 min before harvesting. The cells were flushed with PBS and the cell-suspension was centrifuged for 5 min at 1000 rpm. […] The resulting pellet was resuspended in buffer 2 and protein concentration was measured (BCA protein Assay, Pierce). The homogenate was kept cold during the whole procedure. The membranes were kept at −80° C. until use. Assay was performed in a 384 well Optiplate (PerkinElmer) in a total volume of 40 ul. Membranes were mixed with SPA beads. Final concentration of membranes 35 ng/μL final and Final concentration of SPA beads was 0.05 mg/well. Test-compounds were dissolved in DMSO and further diluted in assay buffer (50 mM Hepes, pH 7.4, 1 mM CaCl2, 5 mM MgCl2, 0.1% OA and 0.02% Tween20). […] Samples were analyzed on TopCounter™ (Packard). The IC50 was calculated using (one site binding competition analysis) GraphPad Prism5 as a measure of receptor affinity.
Assay [4] has as its target T3, human amylin receptor (Homo sapiens, UniProt O60896+P30988).
T3 construct: expressed in transfected cells
T3 sequence (P30988 25-474): T1 sequence (P30988 25-474)
T3 sequence (O60896 24-148 partner): T1 sequence (O60896 24-148 partner)
In words: Assay (V) binding to the human amylin receptor (SPA, 125I-rat amylin). As to conditions: for IC50: human amylin receptor membranes, SPA, read-out: hAmylin-R bind IC50. The method in brief: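 IC50, taken as receptor affinity, came from one-site binding competition analysis of scintillation proximity counts. Amylin 3(a)/CRE-luc cell membranes (35 ng/μL final) were mixed with SPA beads (0.05 mg/well) in 50 mM Hepes pH 7.4 containing CaCl2, MgCl2, 0.1% OA and 0.02% Tween20.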

The mark [5] stands for this setting: Table 6, human functional selectivity (hCTR EC50 / hAmylin-R EC50).
Setting [6] is: Table 7b, human calcitonin receptor binding IC50 divided by human amylin receptor binding IC50.
The mark [7] stands for this setting: Table 7c, human calcitonin receptor binding IC50 divided by human amylin receptor binding IC50.
[8] abbreviates: human binding ratio, included for comparison.

On to `CC[C@H](C)[C@H](NC(=O)[C@H](C)NC(=O)CNC(=O)[C@H](Cc1ccccc1)NC(=O)[C@H](CC(N)=O)NC(=O)[C@@H]1CCCN1C(=O)[C@H](CO)NC(=O)[C@H](CO)NC(=O)[C@H](Cc1c[nH]cn1)NC(=O)[C@H](CCCNC(=N)N)NC(=O)[C@H](CC(C)C)NC(=O)[C@H](Cc1ccccc1)NC(=O)[C@H](CCC(=O)O)NC(=O)[C@H](C)NC(=O)[C@H](CC(C)C)NC(=O)[C@H](CCCNC(=N)N)NC(=O)[C@H](CCC(N)=O)NC(=O)[C@@H](NC(=O)[C@H](C)NC(=O)[C@@H]1CSSC[C@H](NC(=O)[C@H](CCCCN)NC(=O)CC[C@H](NC(=O)CCCCCCCCCCCCCCCCCCC(=O)O)C(=O)O)C(=O)N[C@@H](CC(N)=O)C(=O)N[C@@H]([C@@H](C)O)C(=O)N[C@@H](C)C(=O)N[C@@H]([C@@H](C)O)C(=O)N1)[C@@H](C)O)C(=O)N1CCC[C@H]1C(=O)N[C@@H](CO)C(=O)N[C@@H](CO)C(=O)N[C@H](C(=O)N[C@@H](CC(N)=O)C(=O)N[C@H](C(=O)NCC(=O)N[C@@H](CO)C(=O)N[C@@H](CCC(=O)O)C(=O)N[C@H](C(=O)N[C@@H](Cc1ccc(O)cc1)C(N)=O)[C@@H](C)O)C(C)C)[C@@H](C)O` [Example 22] ({C20 diacid-γGlu}-KCNTATCATQRLAEFLRHSSPNFGAIPSSTNVGSETY-NH2; disulfide 2-7), for which, in assay [1] (setting [5]), the “Ratio hCT/hAmylin funct.” value was 3.8. The EC50 was 0.27 nM in assay [1] and 1.03 nM in assay [2]. The half-inhibitory concentration (IC50) in assay [3] is 9.73 nM; in assay [4] it was 0.794 nM.
In the case of `CC[C@H](C)[C@H](NC(=O)[C@H](C)NC(=O)CNC(=O)[C@H](Cc1ccccc1)NC(=O)[C@H](CC(N)=O)NC(=O)[C@@H]1CCCN1C(=O)[C@H](CO)NC(=O)[C@H](CO)NC(=O)[C@H](Cc1c[nH]cn1)NC(=O)[C@H](CCCNC(=N)N)NC(=O)[C@H](CC(C)C)NC(=O)[C@H](Cc1ccccc1)NC(=O)[C@H](CC(N)=O)NC(=O)[C@H](C)NC(=O)[C@H](CC(C)C)NC(=O)[C@H](CCCNC(=N)N)NC(=O)[C@H](CCC(N)=O)NC(=O)[C@@H](NC(=O)[C@H](C)NC(=O)[C@@H]1CSSC[C@H](NC(=O)[C@H](CCCCN)NC(=O)CC[C@H](NC(=O)CCCCCCCCCCCCCCCCCCC(=O)O)C(=O)O)C(=O)N[C@@H](CC(N)=O)C(=O)N[C@@H]([C@@H](C)O)C(=O)N[C@@H](C)C(=O)N[C@@H]([C@@H](C)O)C(=O)N1)[C@@H](C)O)C(=O)N1CCC[C@H]1C(=O)N[C@@H](CO)C(=O)N[C@@H](CO)C(=O)N[C@H](C(=O)N[C@@H](CC(N)=O)C(=O)N[C@H](C(=O)NCC(=O)N[C@@H](CO)C(=O)N[C@@H](CCC(=O)O)C(=O)N[C@H](C(=O)N[C@@H](Cc1ccc(O)cc1)C(N)=O)[C@@H](C)O)C(C)C)[C@@H](C)O` [Example 23], the “Ratio hCT/hAmylin funct.” value in assay [1] (setting [5]) stood at 8.9; in assay [1] (Table 6a, human functional selectivity (hCTR EC50 / hAmylin-R EC50), at least 5), 8.9; in assay [1] (Table 6j, hCTR funct. EC50 / hAmylin-R funct. EC50), 8.9; in assay [1] (Table 6k, hCTR funct. EC50 / hAmylin-R funct. EC50), 8.9. Besides, the EC50 in assay [1] was 0.34 nM; in assay [2], 3.02 nM. Further, the half-maximal inhibitory concentration (IC50) in assay [3] worked out at 21.8 nM; in assay [4], 0.871 nM. Moreover, the “Ratio hCT/hAmylin binding” value in assay [4] (setting [6]), in assay [4] (setting [7]) and in assay [4] (setting [8]) was 25.0 each time.
`CC[C@H](C)[C@H](NC(=O)[C@H](C)NC(=O)CNC(=O)[C@H](Cc1ccccc1)NC(=O)[C@H](CC(N)=O)NC(=O)[C@@H]1CCCN1C(=O)[C@H](CO)NC(=O)[C@H](CO)NC(=O)[C@H](Cc1c[nH]cn1)NC(=O)[C@H](CCCNC(=N)N)NC(=O)[C@H](CC(C)C)NC(=O)[C@H](Cc1ccccc1)NC(=O)[C@H](CC(N)=O)NC(=O)[C@H](C)NC(=O)[C@H](CC(C)C)NC(=O)[C@H](CCCNC(=N)N)NC(=O)[C@H](CCC(N)=O)NC(=O)[C@@H](NC(=O)[C@H](C)NC(=O)[C@@H]1CSSC[C@H](NC(=O)[C@H](CCCCN)NC(=O)COCCOCCNC(=O)COCCOCCNC(=O)CC[C@H](NC(=O)CCCCCCCCCCCCCCCCCCC(=O)O)C(=O)O)C(=O)N[C@@H](CC(N)=O)C(=O)N[C@@H]([C@@H](C)O)C(=O)N[C@@H](C)C(=O)N[C@@H]([C@@H](C)O)C(=O)N1)[C@@H](C)O)C(=O)N1CCC[C@H]1C(=O)N[C@@H](CO)C(=O)N[C@@H](CO)C(=O)N[C@H](C(=O)N[C@@H](CC(N)=O)C(=O)N[C@H](C(=O)NCC(=O)N[C@@H](CO)C(=O)N[C@@H](CC(N)=O)C(=O)N[C@H](C(=O)N[C@@H](Cc1ccc(O)cc1)C(N)=O)[C@@H](C)O)C(C)C)[C@@H](C)O` [Example 24]: the half-maximal effective concentration (EC50) in assay [1] is 0.433 nM; in assay [2] it was 10 nM. For the same molecule, the IC50 in assay [3] was found to be 102 nM; in assay [4], 1.14 nM. Further, the “Ratio hCT/hAmylin binding” value in assay [4] (setting [6]), in assay [4] (setting [7]) and in assay [4] (setting [8]) was 90.0 throughout.
Turning to `CC[C@H](C)[C@H](NC(=O)[C@H](C)NC(=O)CNC(=O)[C@H](Cc1ccccc1)NC(=O)[C@H](CC(N)=O)NC(=O)[C@@H]1CCCN1C(=O)[C@H](CO)NC(=O)[C@H](CO)NC(=O)[C@H](Cc1c[nH]cn1)NC(=O)[C@H](CCCNC(=N)N)NC(=O)[C@H](CC(C)C)NC(=O)[C@H](Cc1ccccc1)NC(=O)[C@H](CC(N)=O)NC(=O)[C@H](C)NC(=O)[C@H](CC(C)C)NC(=O)[C@H](CCCNC(=N)N)NC(=O)[C@H](CCC(N)=O)NC(=O)[C@@H](NC(=O)[C@H](C)NC(=O)[C@@H]1CSSC[C@H](NC(=O)[C@@H](N)CCCCNC(=O)COCCOCCNC(=O)COCCOCCNC(=O)CC[C@H](NC(=O)CCCCCCCCCCCCCCCCCCC(=O)O)C(=O)O)C(=O)N[C@@H](CC(N)=O)C(=O)N[C@@H]([C@@H](C)O)C(=O)N[C@@H](C)C(=O)N[C@@H]([C@@H](C)O)C(=O)N1)[C@@H](C)O)C(=O)N1CCC[C@H]1C(=O)N[C@@H](CO)C(=O)N[C@@H](CO)C(=O)N[C@H](C(=O)N[C@@H](CC(N)=O)C(=O)N[C@H](C(=O)NCC(=O)N[C@@H](CO)C(=O)N[C@@H](CCC(=O)O)C(=O)N[C@H](C(=O)N[C@@H](Cc1ccc(O)cc1)C(N)=O)[C@@H](C)O)C(C)C)[C@@H](C)O` [Example 25], the EC50 in assay [1] stood at 0.217 nM; in assay [2], 10 nM. The 50% inhibitory concentration (IC50) in assay [3] was determined as 43.4 nM; in assay [4], 0.768 nM.
As for `CC[C@H](C)[C@H](NC(=O)[C@H](C)NC(=O)CNC(=O)[C@H](Cc1ccccc1)NC(=O)[C@H](CC(N)=O)NC(=O)[C@@H]1CCCN1C(=O)[C@H](CO)NC(=O)[C@H](CO)NC(=O)[C@H](Cc1c[nH]cn1)NC(=O)[C@H](CCCNC(=N)N)NC(=O)[C@H](CC(C)C)NC(=O)[C@H](Cc1ccccc1)NC(=O)[C@H](CC(N)=O)NC(=O)[C@H](C)NC(=O)[C@H](CC(C)C)NC(=O)[C@H](CCCNC(=N)N)NC(=O)[C@H](CCC(N)=O)NC(=O)[C@@H](NC(=O)[C@H](C)NC(=O)[C@@H]1CSSC[C@H](NC(=O)[C@@H](N)CCCCNC(=O)CC[C@H](NC(=O)CCCCCCCCCCCCCCCCCCC(=O)O)C(=O)O)C(=O)N[C@@H](CC(N)=O)C(=O)N[C@@H]([C@@H](C)O)C(=O)N[C@@H](C)C(=O)N[C@@H]([C@@H](C)O)C(=O)N1)[C@@H](C)O)C(=O)N1CCC[C@H]1C(=O)N[C@@H](CO)C(=O)N[C@@H](CO)C(=O)N[C@H](C(=O)N[C@@H](CC(N)=O)C(=O)N[C@H](C(=O)NCC(=O)N[C@@H](CO)C(=O)N[C@@H](CCC(=O)O)C(=O)N[C@H](C(=O)N[C@@H](Cc1ccc(O)cc1)C(N)=O)[C@@H](C)O)C(C)C)[C@@H](C)O` [Example 27], the EC50 in assay [1] turned out to be 0.133 nM; in assay [2], 3 nM. In addition, the IC50 in assay [3] was determined as 34.5 nM; in assay [4] it was 0.837 nM.
